US9663473B2 (Actelion Pharmaceuticals Ltd, priority 2013, dated 2017)
Where a name gives a salt, the structure may show the parent alone. Values belong to the molecule of their own block, whether it stands above or below them.

Target: T1, recombinant human ALX receptor (Homo sapiens, UniProt P25090)
T1 construct: expressed in transfected cells; host or cells: HEK293 (HEK293-hALXR-Gα16)
T1 sequence (P25090 1-351): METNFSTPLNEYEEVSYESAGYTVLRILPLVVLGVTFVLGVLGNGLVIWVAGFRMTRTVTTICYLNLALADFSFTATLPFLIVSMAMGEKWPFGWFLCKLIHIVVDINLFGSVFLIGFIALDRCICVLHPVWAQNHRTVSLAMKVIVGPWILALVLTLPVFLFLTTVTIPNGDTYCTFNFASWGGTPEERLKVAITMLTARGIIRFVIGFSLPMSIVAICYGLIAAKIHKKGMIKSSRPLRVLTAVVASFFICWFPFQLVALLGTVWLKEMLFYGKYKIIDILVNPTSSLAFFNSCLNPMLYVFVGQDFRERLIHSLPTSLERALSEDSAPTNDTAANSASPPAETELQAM
Test: Intracellular calcium measurements (FLIPR), ALX receptor agonistic activity
Type: cell-based
Conditions: HEK293-hALXR-Gα16 cells, Fluo-4 calcium signal, normalized to WKYMVm 10 nM
Method in brief: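 HEK293 cells co-expressing human ALX receptor and Gα16 were loaded with 1 μM Fluo-4 AM for 60 min at 37° C., then exposed to serially diluted compounds on FLIPR Tetra. Peak fluorescence above baseline (ex 488/em 540 nm) was normalized to 10 nM WKYMVm as high control.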

SMILES: COc1ccc(CC(NC(=O)NCc2nc3ccccc3s2)c2nc3ccccc3[nH]2)cc1 (stereo not shown) [Example 38, 1-(1-(1H-Benzo[d]imidazol-2-yl)-2-(4-methoxyphenyl)ethyl)-3-(benzo[d]thiazol-2-ylmethyl)urea]
- EC50: 198 nM

SMILES: COc1ccc(CC(NC(=O)N[C@H]2CC[C@H](O)CC2)c2nc3ccc(F)cc3[nH]2)cc1F (single isomer, unassigned; ent-1) [Example 318, 1-(1-(6-Fluoro-1H-benzo[d]imidazol-2-yl)-2-(3-fluoro-4-methoxyphenyl)ethyl)-3-(trans-4-hydroxycyclohexyl)urea (ent-1)]
- EC50: 1.2 nM

SMILES: COc1ccc(C[C@@H](NC(=O)NC2CCc3cccc(OC)c3C2)c2nc3ccccc3[nH]2)cc1 (stereo partly drawn) [Example 30, 1-((R)-1-(1H-Benzo[d]imidazol-2-yl)-2-(4-methoxyphenyl)ethyl)-3-(8-methoxy-1,2,3,4-tetrahydronaphthalen-2-yl)urea]
- EC50: 26 nM

SMILES: COc1ccc(C[C@@H](NC(=O)NCCN2CCN(C(=O)OC(C)(C)C)CC2)c2nc3ccccc3[nH]2)cc1 [Example 144, (R)-tert-Butyl 4-(2-(3-(1-(1H-benzo[d]imidazol-2-yl)-2-(4-methoxyphenyl)ethyl)ureido)ethyl)piperazine-1-carboxylate]
- EC50: 947 nM

SMILES: COc1ccc(CC(NC(=O)N(C)[C@H]2CC[C@H](O)CC2)c2nc3ccccc3[nH]2)cc1 (relative stereo) [Example 76, 3-(1-(1H-Benzo[d]imidazol-2-yl)-2-(4-methoxyphenyl)ethyl)-1-(trans-4-hydroxycyclohexyl)-1-methylurea]
- EC50: 540 nM

SMILES: COc1ccc(C[C@@H](NC(=O)NCC2(c3ccccc3)CCCCC2)c2nc3ccccc3[nH]2)cc1 [Example 278, (R)-1-(1-(1H-Benzo[d]imidazol-2-yl)-2-(4-methoxyphenyl)ethyl)-3-((1-phenylcyclohexyl)methyl)urea]
- EC50: 51 nM

SMILES: COc1ccc(CC(NC(=O)N[C@H]2CC[C@H](O)CC2)c2nc3ccccc3[nH]2)c(F)c1 (relative stereo) [Example 210, 1-(1-(1H-Benzo[d]imidazol-2-yl)-2-(2-fluoro-4-methoxyphenyl)ethyl)-3-(trans-4-hydroxycyclohexyl)urea]
- EC50: 1.9 nM

SMILES: COc1ccc(C[C@@H](NC(=O)NC(CN2CCOCC2)c2ccccc2)c2nc3ccccc3[nH]2)cc1 (stereo partly drawn) [Example 214, 1-((R)-1-(1H-Benzo[d]imidazol-2-yl)-2-(4-methoxyphenyl)ethyl)-3-(2-morpholino-1-phenylethyl)urea]
- EC50: 28 nM

SMILES: COc1ccc(C[C@@H](NC(=O)N2CCN(C(=O)OC(C)(C)C)CC2)c2nc3ccccc3[nH]2)cc1 [Example 130, (R)-tert-Butyl 4-((1-(1H-benzo[d]imidazol-2-yl)-2-(4-methoxyphenyl)ethyl)carbamoyl)piperazine-1-carboxylate]
- EC50: 1060 nM

SMILES: COc1ccc(C[C@@H](NC(=O)NC2CCN(C(=O)OC(C)(C)C)C2)c2nc3ccccc3[nH]2)cc1 (stereo partly drawn) [Example 93, tert-butyl 3-(3-((R)-1-(1H-Benzo[d]imidazol-2-yl)-2-(4-methoxyphenyl)ethyl)ureido)pyrrolidine-1-carboxylate]
- EC50: 16 nM

SMILES: COc1ccc(C[C@@H](NC(=O)NC(c2ccccn2)C(F)(F)F)c2nc3ccccc3[nH]2)cc1 (stereo partly drawn) [Example 292, 1-((R)-1-(1H-Benzo[d]imidazol-2-yl)-2-(4-methoxyphenyl)ethyl)-3-(2,2,2-trifluoro-1-(pyridin-2-yl)ethyl)urea]
- EC50: 81 nM

SMILES: COc1ccc(C[C@@H](NC(=O)N2CCC3NCCC32)c2nc3ccccc3[nH]2)cc1 (stereo partly drawn) [Example 128, N—((R)-1-(1H-Benzo[d]imidazol-2-yl)-2-(4-methoxyphenyl)ethyl)hexahydropyrrolo[3,2-b]pyrrole-1(2H)-carboxamide]
- EC50: 308 nM

SMILES: COc1ccc(C[C@@H](NC(=O)NCCCCO)c2nc3ccccc3[nH]2)cc1 [Example 96, (R)-1-(1-(1H-Benzo[d]imidazol-2-yl)-2-(4-methoxyphenyl)ethyl)-3-(4-hydroxybutyl)urea]
- EC50: 152 nM

SMILES: COc1ccc(C[C@@H](NC(=O)N[C@@H]2CC[C@H](O)C2)c2nc3ccccc3[nH]2)cc1 (relative stereo) [Example 171, 1-((R)-1-(1H-Benzo[d]imidazol-2-yl)-2-(4-methoxyphenyl)ethyl)-3-((1R*,3S*)-3-hydroxycyclopentyl)urea]
- EC50: 38 nM

SMILES: COc1ccc(CC(NC(=O)NCCc2c(C)noc2C)c2nc3ccccc3[nH]2)cc1 (stereo not shown) [Example 42, 1-(1-(1H-Benzo[d]imidazol-2-yl)-2-(4-methoxyphenyl)ethyl)-3-(2-(3,5-dimethylisoxazol-4-yl)ethyl)urea]
- EC50: 814 nM

Continued, values first:

- EC50: 66 nM
SMILES: COc1ccc(C[C@@H](NC(=O)N[C@H](C)c2ccc(C)cc2)c2nc3ccccc3[nH]2)cc1 [Example 301, 1-((R)-1-(1H-Benzo[d]imidazol-2-yl)-2-(4-methoxyphenyl)ethyl)-3-((R)-1-(p-tolyl)ethyl)urea]

- EC50: 268 nM
SMILES: COc1ccc(C[C@@H](NC(=O)NC2(c3ccc(Br)cc3)CC2)c2nc3ccccc3[nH]2)cc1 [Example 340, (R)-1-(1-(1H-Benzo[d]imidazol-2-yl)-2-(4-methoxyphenyl)ethyl)-3-(1-(4-bromophenyl)cyclopropyl)urea]

- EC50: 299 nM
SMILES: COc1ccc(C[C@@H](NC(=O)NCc2ccccc2OC(F)F)c2nc3ccccc3[nH]2)cc1 [Example 198, (R)-1-(1-(1H-Benzo[d]imidazol-2-yl)-2-(4-methoxyphenyl)ethyl)-3-(2-(difluoromethoxy)benzyl)urea]

- EC50: 23 nM
SMILES: COc1ccc(C[C@@H](NC(=O)NCc2ccccc2COC(C)C)c2nc3ccccc3[nH]2)cc1 [Example 58, (R)-1-(1-(1H-Benzo[d]imidazol-2-yl)-2-(4-methoxyphenyl)ethyl)-3-(2-(isopropoxymethyl)benzyl)urea]

- EC50: 205 nM
SMILES: COc1ccc(C[C@@H](NC(=O)N[C@@H](C)c2ccc(OC)cc2)c2nc3ccccc3[nH]2)cc1 [Example 330, 1-((R)-1-(1H-Benzo[d]imidazol-2-yl)-2-(4-methoxyphenyl)ethyl)-3-((S)-1-(4-methoxyphenyl)ethyl)urea]

- EC50: 46 nM
SMILES: COc1ccc(CC(NC(=O)Nc2ccnn2-c2ccccc2OC)c2nc3ccccc3[nH]2)cc1 (stereo not shown) [Example 421, 1-(1-(1H-benzo[d]imidazol-2-yl)-2-(4-methoxyphenyl)ethyl)-3-(1-(2-methoxyphenyl)-1H-pyrazol-5-yl)urea]

- EC50: 120 nM
SMILES: COc1ccc(C[C@@H](NC(=O)NC(C)c2ccc(OC(F)F)cc2)c2nc3ccccc3[nH]2)cc1 (stereo partly drawn) [Example 271, 1-((R)-1-(1H-Benzo[d]imidazol-2-yl)-2-(4-methoxyphenyl)ethyl)-3-(1-(4-(difluoromethoxy)phenyl)ethyl)urea]

- EC50: 81 nM
SMILES: COc1ccc(C[C@@H](NC(=O)NCc2ccccc2CN(C)C)c2nc3ccccc3[nH]2)cc1 [Example 199, (R)-1-(1-(1H-Benzo[d]imidazol-2-yl)-2-(4-methoxyphenyl)ethyl)-3-(2-((dimethylamino)methyl)benzyl)urea]

- EC50: 161 nM
SMILES: CCOc1ccccc1CNC(=O)N[C@H](Cc1ccc(OC)cc1)c1nc2ccccc2[nH]1 [Example 60, (R)-1-(1-(1H-Benzo[d]imidazol-2-yl)-2-(4-methoxyphenyl)ethyl)-3-(2-ethoxybenzyl)urea hydrochloride]

- EC50: 54 nM
SMILES: COC[C@H](NC(=O)N[C@H](Cc1ccc(OC)cc1)c1nc2ccccc2[nH]1)c1ccccc1 [Example 201, 1-((R)-1-(1H-Benzo[d]imidazol-2-yl)-2-(4-methoxyphenyl)ethyl)-3-((R)-2-methoxy-1-phenylethyl)urea]
